# Measurements from article PMC2747021, “Synergistic Antibacterial and Anti-Inflammatory Activity of Temporin A and Modified Temporin B In Vivo” (PLoS ONE, 2009).
# No end group written: not given here.
# Tests used:
# [1] = tested on: Staphilococcus aureus 007; settings: 20 h
# [2] = tested on: Salmonella enterica serovar Paratyphi; assay: Antibacterial activity, MIC100 broth dilution; assay type: cell-based; settings: single peptide; MIC100, MH broth, about 10^6 CFU/ml, 37°C 20 h, absorbance 600 nm, triplicate
# Escherichian coli = settings: 20 h
# Listeria monocytogenes = settings: 20 h
# [3] = tested on: Staphilococcus.aureus A170; settings: single peptide; MIC100, MH broth, about 10^6 CFU/ml, 37°C 20 h, absorbance 600 nm, triplicate
# [4] = tested on: Staphilococcus .aureus A172; settings: 20 h
substance,measurement,setting,value
KKYLLPIVGNLLKSLL-NH2 [TB-YK],MIC,[1],10 µg/mL
same,MIC,[2],20 µg/mL
same,MIC,Escherichian coli,20 µg/mL
same,MIC,Listeria monocytogenes,10 µg/mL
same,MIC,[3],20 µg/mL
same,MIC,[4],25 µg/mL
